Assay results as given in PubChem BioAssay AID328 (DTP/NCI, 2004).
“And” between values parts separate entries of the source, which are not always exact repeats. Equal values may be shown once. Toxic doses and inconclusive results are not listed.

System: BDF1 mice, P388 leukemia ip, median survival T/C
Test: NCI In Vivo Anticancer Drug Screen. Data for tumor model P388 Leukemia (intraperitoneal) in B6D2F1 (BDF1) mice
Conditions: endpoint: median survival time, higher = longer survival
Procedure, shortened: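 Transplantable tumour in mice; compound vs vehicle dosing; survival scored; ratio of treated to control reported.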

[1] = dose: 50.0 mg/kg/injection, schedule: Q01DX009 (ip), vehicle: saline with Tween-80
[2] = dose: 50.0 mg/kg/injection, schedule: Q04DX003 (ip), vehicle: saline
[3] = dose: 100.0 mg/kg/injection, schedule: Q04DX003 (ip), vehicle: saline
[4] = dose: 200.0 mg/kg/injection, schedule: Q04DX003 (ip), vehicle: saline
[5] = dose: 400.0 mg/kg/injection, schedule: Q04DX003 (ip), vehicle: saline
[6] = dose: 12.5 mg/kg/injection, schedule: Q01DX009 (ip), vehicle: saline with Tween-80
[7] = dose: 25.0 mg/kg/injection, schedule: Q01DX009 (ip), vehicle: saline with Tween-80
[8] = dose: 25.0 mg/kg/injection, schedule: Q04DX003 (ip), vehicle: saline with Tween-80
[9] = dose: 50.0 mg/kg/injection, schedule: Q04DX003 (ip), vehicle: saline with Tween-80
[10] = dose: 100.0 mg/kg/injection, schedule: Q04DX003 (ip), vehicle: saline with Tween-80
[11] = dose: 50.0 mg/kg/injection, schedule: Q01DX005 (ip), vehicle: saline with Tween-80
[12] = dose: 50.0 mg/kg/injection, schedule: Q01DX009 (ip), vehicle: saline
[13] = dose: 100.0 mg/kg/injection, schedule: Q01DX009 (ip), vehicle: saline
[14] = dose: 200.0 mg/kg/injection, schedule: Q01DX009 (ip), vehicle: saline
[15] = dose: 100.0 mg/kg/injection, schedule: Q01DX009 (ip), vehicle: saline with Tween-80
[16] = dose: 2.5 mg/kg/injection, schedule: Q01DX009 (ip), vehicle: Klucel (hydroxypropylcellulose) (HPC)
[17] = dose: 5.0 mg/kg/injection, schedule: Q01DX009 (ip), vehicle: Klucel (hydroxypropylcellulose) (HPC)
[18] = dose: 10.0 mg/kg/injection, schedule: Q01DX009 (ip), vehicle: Klucel (hydroxypropylcellulose) (HPC)
[19] = dose: 20.0 mg/kg/injection, schedule: Q01DX009 (ip), vehicle: Klucel (hydroxypropylcellulose) (HPC)

With `CC[C@](C)(O)C(=O)O[C@H]1C(=O)O[C@@H]2C[C@H]3C(C)=CC(=O)[C@@H](O)[C@]3(C)[C@H]3[C@@]4(O)OC[C@]32[C@@H]1[C@@H](C)[C@H]4O` the T/C (dose: 0.06 mg/kg/injection, schedule: Q01DX009 (ip), vehicle: saline with Tween-80) was 100 % of control, the T/C (dose: 0.07 mg/kg/injection, schedule: Q01DX010 (ip), vehicle: saline) was 105 % of control and the T/C (dose: 0.12 mg/kg/injection, schedule: Q01DX009 (ip), vehicle: saline with Tween-80) was 100 % of control. The T/C (dose: 0.12 mg/kg/injection, schedule: Q01DX009 (ip), vehicle: saline) was 100 % of control, the T/C (dose: 0.15 mg/kg/injection, schedule: Q01DX010 (ip), vehicle: saline) was 95 % of control and the T/C (dose: 0.2 mg/kg/injection, schedule: Q01DX010 (ip), vehicle: saline) was 100 % of control. The T/C (dose: 0.25 mg/kg/injection, schedule: Q01DX009 (ip), vehicle: saline) was 108 % of control, the T/C (dose: 0.25 mg/kg/injection, schedule: Q01DX010 (ip), vehicle: steriod suspending solution) was 177 % of control and the T/C (dose: 0.3 mg/kg/injection, schedule: Q01DX010 (ip), vehicle: saline) was 109 % of control and 110 % of control. For the same compound, the T/C (dose: 0.44 mg/kg/injection, schedule: Q01DX010 (ip), vehicle: saline) was 104 % of control, the T/C (dose: 0.5 mg/kg/injection, schedule: Q01DX009 (ip), vehicle: saline) was 104 % of control and the T/C (dose: 0.5 mg/kg/injection, schedule: Q01DX010 (ip), vehicle: steriod suspending solution) was 231 % of control. For the same compound, the T/C (dose: 0.51 mg/kg/injection, schedule: Q01DX009 (ip), vehicle: saline with Tween-80) was 161 % of control, the T/C (dose: 0.6 mg/kg/injection, schedule: Q01DX010 (ip), vehicle: saline) was 150 % of control and the T/C (dose: 0.64 mg/kg/injection, schedule: Q01DX009 (ip), vehicle: saline with Tween-80) was 171 % of control. For the same compound, the T/C (dose: 0.66 mg/kg/injection, schedule: Q01DX010 (ip), vehicle: saline) was 122 % of control and the T/C (dose: 1.0 mg/kg/injection, schedule: Q01DX009 (ip), vehicle: saline + alcohol) was 87 % of control.

`O=C(N=Nc1c(O)[nH]c2ccccc12)C(=O)Nc1cccc(C(F)(F)F)c1` was tested, and the T/C [1] was 87 % of control.

`CC1(C)/C(=C/c2ccccc2)C(=O)c2ccccc21` was tested, and the T/C (dose: 12.5 mg/kg/injection, schedule: Q04DX003 (ip), vehicle: saline) was 107 % of control, the T/C (dose: 25.0 mg/kg/injection, schedule: Q04DX003 (ip), vehicle: saline) was 118 % of control and the T/C [2] was 91 % of control. The T/C [3] was 103 % of control and 121 % of control, the T/C [4] was 102 % of control and 112 % of control and the T/C [5] was 110 % of control.

`O=C1C=C(Nc2ccc(F)cc2)C(Nc2ccc(F)cc2)=CC1=O` was tested, and the T/C (dose: 87.5 mg/kg/injection, schedule: Q01DX009 (ip), vehicle: saline with Tween-80) was 87 % of control and the T/C (dose: 350.0 mg/kg/injection, schedule: Q01DX009 (ip), vehicle: saline with Tween-80) was 91 % of control.

For `COc1ccc(CC(=O)NCCc2ccccc2)cc1OC`, the T/C [6] was 112 % of control, the T/C (dose: 12.5 mg/kg/injection, schedule: Q04DX003 (ip), vehicle: saline with Tween-80) was 100 % of control and the T/C [7] was 104 % of control. For the same compound, the T/C [8] was 100 % of control, the T/C [1] was 110 % of control and the T/C [9] was 109 % of control. For the same compound, the T/C [10] was 99 % of control and 100 % of control.

For `O=S(=O)(CBr)OCCCl`, the T/C [11] was 120 % of control, the T/C (dose: 100.0 mg/kg/injection, schedule: Q01DX005 (ip), vehicle: saline with Tween-80) was 121 % of control and the T/C (dose: 200.0 mg/kg/injection, schedule: Q01DX005 (ip), vehicle: saline with Tween-80) was 165 % of control.

`CC(C)OC(=O)Nc1ccccc1Cl` was tested, and the T/C [2] was 95 % of control.

In the case of `Nc1ccc(C(=O)O)c([N+](=O)[O-])c1`, the T/C (dose: 12.5 mg/kg/injection, schedule: Q01DX009 (ip), vehicle: saline) is reported as 92 % of control, the T/C (dose: 25.0 mg/kg/injection, schedule: Q01DX009 (ip), vehicle: saline) is reported as 100 % of control and the T/C [12] is reported as 105 % of control and 118 % of control. For the same compound, the T/C [2] was 99 % of control, the T/C [13] was 94 % of control and 98 % of control and the T/C [3] was 100 % of control. The T/C [14] was 107 % of control, the T/C [4] was 112 % of control and the T/C (dose: 400.0 mg/kg/injection, schedule: Q01DX009 (ip), vehicle: saline) was 100 % of control. The T/C [5] was 103 % of control.

With `O=C1C(Cl)=C(Sc2nc3ccccc3s2)C(=O)c2ccccc21` the T/C [11] was 112 % of control.

`COc1ccc(C(CCl)(CCl)c2ccc(OC)cc2)cc1` was tested, and the T/C (dose: 100.0 mg/kg/injection, schedule: Q01DX009 (ip), vehicle: gum acacia) was 116 % of control, the T/C (dose: 100.0 mg/kg/injection, schedule: Q04DX003 (ip), vehicle: gum acacia) was 87 % of control and the T/C (dose: 200.0 mg/kg/injection, schedule: Q01DX009 (ip), vehicle: gum acacia) was 112 % of control. For the same compound, the T/C (dose: 200.0 mg/kg/injection, schedule: Q04DX003 (ip), vehicle: gum acacia) was 104 % of control, the T/C (dose: 400.0 mg/kg/injection, schedule: Q01DX009 (ip), vehicle: gum acacia) was 104 % of control and the T/C (dose: 400.0 mg/kg/injection, schedule: Q04DX003 (ip), vehicle: gum acacia) was 95 % of control.

With `COC(=O)C1(C)N=C(Cc2ccccc2)OO1` (stereo not given) the T/C [7] was 100 % of control, the T/C [1] was 110 % of control and the T/C [15] was 105 % of control.

In the case of `NC1=NC(=O)/C(=C/c2ccccc2)S1`, the T/C [12] is reported as 90 % of control, the T/C [13] is reported as 100 % of control and the T/C [14] is reported as 100 % of control.

For `CC(C)=CCOc1ccc(C(=O)/C=C/c2ccccc2)c(O)c1`, the T/C (dose: 1.25 mg/kg/injection, schedule: Q01DX009 (ip), vehicle: Klucel (hydroxypropylcellulose) (HPC)) was 108 % of control, the T/C [16] was 101 % of control and the T/C [17] was 107 % of control. For the same compound, the T/C [18] was 91 % of control, the T/C [19] was 104 % of control and the T/C (dose: 40.0 mg/kg/injection, schedule: Q01DX009 (ip), vehicle: Klucel (hydroxypropylcellulose) (HPC)) was 89 % of control.

`Cc1cccc(N2CCNCC2)c1` was tested, and the T/C (dose: 6.25 mg/kg/injection, schedule: Q04DX003 (ip), vehicle: saline sonified) was 95 % of control, the T/C (dose: 12.5 mg/kg/injection, schedule: Q04DX003 (ip), vehicle: saline sonified) was 100 % of control and the T/C (dose: 25.0 mg/kg/injection, schedule: Q04DX003 (ip), vehicle: saline sonified) was 109 % of control.

In the case of `O=C1c2ccccc2-c2ncccc21`, the T/C (dose: 100.0 mg/kg/injection, schedule: Q04DX003 (ip), vehicle: Klucel (hydroxypropylcellulose) (HPC)) is reported as 100 % of control and the T/C (dose: 200.0 mg/kg/injection, schedule: Q04DX003 (ip), vehicle: Klucel (hydroxypropylcellulose) (HPC)) is reported as 95 % of control.

`O=C1C=C(N2CC2)c2ccccc2C1=O` was tested, and the T/C [16] was 100 % of control, the T/C [17] was 90 % of control and the T/C [18] was 104 % of control. For the same compound, the T/C (dose: 11.0 mg/kg/injection, schedule: Q04DX003 (ip), vehicle: saline with Tween-80) was 109 % of control, the T/C (dose: 16.5 mg/kg/injection, schedule: Q04DX003 (ip), vehicle: saline with Tween-80) was 104 % of control and the T/C [19] was 104 % of control. The T/C [8] was 118 % of control.

For `CCNC(C)(C)C(S)c1ccc(Cl)s1` (stereo not given), the T/C [6] was 93 % of control, the T/C [7] was 93 % of control and the T/C [8] was 101 % of control. The T/C [1] was 91 % of control and 104 % of control, the T/C [9] was 91 % of control and the T/C (dose: 75.0 mg/kg/injection, schedule: Q04DX003 (ip), vehicle: saline with Tween-80) was 108 % of control. For the same compound, the T/C [15] was 94 % of control and 109 % of control, the T/C [10] was 114 % of control and the T/C (dose: 200.0 mg/kg/injection, schedule: Q04DX003 (ip), vehicle: saline with Tween-80) was 116 % of control.

`CC1(C(=O)O)CCC2(C)CCC3(C)C(=CC(=O)C4C5(C)CCC(OC6OC(C(=O)O)C(O)C(O)C6OC6OC(C(=O)O)C(O)C(O)C6O)C(C)(C)C5CCC43C)C2C1` (stereo not given) was tested, and the T/C (dose: 100.0 mg/kg/injection, schedule: Q04DX003 (ip), vehicle: alcohol) was 104 % of control, the T/C (dose: 200.0 mg/kg/injection, schedule: Q04DX003 (ip), vehicle: alcohol) was 104 % of control and the T/C (dose: 400.0 mg/kg/injection, schedule: Q04DX003 (ip), vehicle: alcohol) was 90 % of control.
